Results from patent US6228985A, “Derivatives of aminobenzoic and aminobiphenylcarboxylic acids useful as anti-cancer agents” (Schering Corporation, priority 1998, dated 2001).
pIC50, pKd: −log10 of the molar value.

Key:
uPAR [1] = molecular target: T1, uPAR (Homo sapiens, UniProt Q03405); assay: cell-based, competition radioligand binding assay (specific binding of c-[125I-Tyr24]-ATFp to DU-145 cells); conditions: radioligand c-[125I-Tyr24]-ATFp 3 nM (1.5 Kd), 4° C. for 90 min, duplicate tubes, 2-3 independent experiments
T1 construct: these cells express high levels of unoccupied uPA receptors; endogenous in cells; host or cells: DU-145 human prostate cancer cells (intact cells, harvested with trypsin/EDTA)
Description: The following assay procedure, which is a cell-based, competition radioligand binding assay, was carried out to determine the activity of the foregoing compounds as uPAR antagonists.
Radioligand Preparation. The minimal receptor-binding sequence of uPA was determined by Apella et al., J. Biol. Chem. 262:4437-4440 (1987), utilizing non-radioactive peptides as competition for a larger uPA radioligand. Our assay was developed and characterized using an iodinated version of the minimal receptor binding sequence of human uPA (residues 12-32, Ala^19). The 21-amino acid peptide (cyclized), referred to herein as "c-ATFp", was synthesized and iodinated as follows: 10 ug of c-ATFp was iodinated with 1 mCi Na^125 I, using the Chloramine-T method (Iodo-Beads, Pierce Chemical Co.); iodinated peptide was separated from unincorporated iodine with Sep-Pak C18 cartridges (Millipore), and the C18-bound peptide was eluted with acetonitrile. This procedure routinely yielded a radioiodinated c-ATFp (c-[^125 I-Tyr^24 ]-ATFp) with specific activity of 105 Ci/mmol: [drawing 101]
Determination of Radioligand Binding. DU-145, a human prostate cancer cell line, was selected for radioligand binding assays because these cells express high levels of unoccupied uPA receptors (approximately 500,000 receptors/cell). Subconfluent, 2 day cultures of DU-145 cells were prepared for radioligand binding assays by harvesting monolayers with trypsin/EDTA. The cells were washed one time with serum-free Dulbecco's Modified Eagle Medium (DMEM), and suspended at a cell density of 250,000 cells/ml in ice-cold DME containing 0.1% bovine serum albumin. Test compounds were solubilized in DMSO at 2 mg/ml and subsequently diluted in phosphate buffered saline to prepare stock concentrations of 200 ug/ml, 20 ug/ml, 2 ug/ml, 0.2 ug/ml, and 0.02 ug/ml. The binding reactions were initiated by addition of 1.0 ml cell suspension to microcentrifuge tubes containing 10 ul of: the indicated test compound solutions, or appropriately diluted DMSO controls, and c-[^25 ]-Tyr^24 ]-ATFp, such that the final concentration of radioligand was 3 nM (1.5 Kd). To control for specific binding, parallel reaction tubes were prepared containing 1,000-fold excess unlabeled c-ATFp. Reaction tubes were incubated with rocking at 4° C. for 90 min. Binding was terminated by 4° C. centrifugation at 800× g for 1 min in a refrigerated microcentrifuge. Unbound radioligand was removed by aspirating the reaction medium, adding fresh, ice-cold DMEM, 0.1% bovine serum albumin to the pelleted cells, and then quickly re-centrifuging and aspirating the wash from the cell pellet. The washing steps were completed in 2-4 minutes by this method, depending on the number of tubes in each experiment. Tips of microcentrifuge tubes containing the cell pellets were snipped and transferred to counting tubes. Radioactivity bound to the cells was determined in a gamma counter.
Specific binding of the radioligand was calculated as the difference between the amount of c-[^125 I-Tyr^24 ]-ATFp bound in the absence (total binding) and presence (non-specific binding) of the unlabeled c-ATFp. The efficacy of test compounds for inhibiting specific binding of c-[^125 I-Tyr^24 ]-ATFp was determined by plotting a graph of specific binding (y-axis) as a function of test compound concentration (x-axis). The concentration of test compound required to inhibit 50% of the specific binding (lC50) was determined from the plot. The IC50 may be directly converted mathematically to Ki, which is a measure of the receptor binding affinity of the compounds under the defined assay conditions. Test compounds were evaluated in duplicate tubes, in 2-3 independent binding experiments.

uPA:uPAR interaction = conditions: cited from earlier work
uPAR [2] = conditions: cited from earlier work

T1 sequence (Q03405 23-335): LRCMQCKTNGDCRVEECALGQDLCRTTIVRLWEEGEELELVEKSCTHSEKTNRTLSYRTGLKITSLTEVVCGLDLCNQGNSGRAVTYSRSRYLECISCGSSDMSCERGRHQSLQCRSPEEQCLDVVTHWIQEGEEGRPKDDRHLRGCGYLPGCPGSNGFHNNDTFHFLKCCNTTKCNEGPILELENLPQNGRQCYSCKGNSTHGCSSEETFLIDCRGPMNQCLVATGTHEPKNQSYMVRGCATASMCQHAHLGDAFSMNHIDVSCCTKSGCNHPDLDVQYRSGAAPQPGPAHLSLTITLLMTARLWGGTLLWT

| pIC50 (uPAR [1]) | Compound | further results |
| --- | --- | --- |
| 8.89 | CC(=O)N[C@@H](Cc1c[nH]c2ccccc12)C(=O)Nc1ccc(-c2ccc(C(=O)N[C@@H](CC(=O)O)C(N)=O)cc2)cc1 [Example 10-V] |  |
| 6.45 | CC(=O)N[C@@H](Cc1c[nH]c2ccccc12)C(=O)Nc1ccc(-c2ccc(C(=O)NCCc3ccccc3)cc2)cc1 [Example 11-W] |  |
| 8.22 | CC(=O)N[C@@H](CCC(N)=O)C(=O)Nc1ccc(-c2ccc(C(=O)N[C@@H](Cc3ccccc3)C(=O)O)cc2)cc1 [Example 9-S] |  |
| 6.72 | O=C(N[C@@H](Cc1c[nH]c2ccccc12)C(=O)Nc1ccc(-c2ccc(C(=O)N[C@@H](Cc3ccccc3)C(=O)O)cc2)cc1)OCC1c2ccccc2-c2ccccc21 [Example 8-D] |  |
| 8.40 | CC(=O)N[C@H](Cc1c[nH]c2ccccc12)C(=O)Nc1ccc(-c2ccc(C(=O)N[C@@H](Cc3ccccc3)C(=O)O)cc2)cc1 [Example 8-K] |  |
| 7.77 | CC(=O)N[C@H](Cc1c[nH]c2ccccc12)C(=O)Nc1ccc(-c2ccc(C(=O)N[C@@H](CC(=O)O)C(=O)O)cc2)cc1 [Example 9-I] |  |
| 7.70 | O=C(Cc1c[nH]c2ccccc12)Nc1ccc(-c2ccc(C(=O)N[C@@H](Cc3ccccc3)C(=O)O)cc2)cc1 [Example 8-A] |  |
| 8.52 | CC(=O)N[C@@H](Cc1c[nH]c2ccccc12)C(=O)Nc1ccc(-c2ccc(C(=O)N[C@@H](Cc3ccc(O)cc3)C(=O)O)cc2)cc1 [Example 9-T] |  |
| 7.04 | CC(=O)N[C@@H](Cc1c[nH]c2ccccc12)C(=O)Nc1ccc(-c2ccc(C(N)=O)cc2)cc1 [Example 12-Y] |  |
| 7.74 | CC(=O)N[C@@H](Cc1ccccc1)C(=O)Nc1ccc(-c2ccc(C(=O)N[C@@H](Cc3ccccc3)C(=O)O)cc2)cc1 [Example 8-Q] |  |
| 7.36 | CC(=O)N[C@@H](Cc1c[nH]c2ccccc12)C(=O)Nc1ccc(-c2ccc(C(=O)N[C@@H](Cc3ccccc3)C(N)=O)cc2)cc1 [Example 10-U] |  |
| 9.05 | CC(=O)N[C@@H](Cc1c[nH]c2ccccc12)C(=O)Nc1ccc(-c2ccc(C(=O)NCCC(=O)O)cc2)cc1 [Example 8-F] |  |
| 7.74 | CC(=O)N[C@H](Cc1c[nH]c2ccccc12)C(=O)Nc1ccc(-c2ccc(C(=O)NCCC(=O)O)cc2)cc1 [Example 8-G] |  |
| 8.74 | CC(=O)N[C@@H](Cc1c[nH]c2ccccc12)C(=O)Nc1ccc(-c2ccc(C(=O)N[C@@H](Cc3ccccc3)C(=O)O)cc2)cc1 [Example 8-J] |  |
| 7.22 | CC(=O)N[C@@H](Cc1c[nH]c2ccccc12)C(=O)Nc1ccc(-c2ccc(C(=O)N[C@@H](CC(=O)O)C(=O)O)cc2)cc1 [Example 9-H] |  |

Further lines, the compound ahead of its results:

| Compound | pIC50 (uPAR [1]) | further results |
| --- | --- | --- |
| O=C(N[C@@H](Cc1c[nH]c2ccccc12)C(=O)Nc1ccc(-c2ccc(C(=O)N[C@@H](Cc3c[nH]c4ccccc34)C(=O)O)cc2)cc1)OCC1c2ccccc2-c2ccccc21 [Example 8-E] | 6.51 |  |
| O=C(O)C[C@H](NC(=O)c1ccc(-c2ccc(NC(=O)[C@H](Cc3c[nH]c4ccccc34)NC(=O)OCC3c4ccccc4-c4ccccc43)cc2)cc1)C(=O)O [Example 9-C] | 6.52 |  |
| Cc1ccc(C(=O)Nc2ccc(S(=O)(=O)O)c3cc(S(=O)(=O)O)cc(S(=O)(=O)O)c23)cc1NC(=O)c1cccc(NC(=O)Nc2cccc(C(=O)Nc3cc(C(=O)Nc4ccc(S(=O)(=O)O)c5cc(S(=O)(=O)O)cc(S(=O)(=O)O)c45)ccc3C)c2)c1 [suramin] |  | inhibition of the uPA:uPAR interaction (uPA:uPAR interaction): inhibit the uPA:uPAR interaction |
| CC(=O)N[C@@H](Cc1c[nH]c2ccccc12)C(=O)Nc1ccc(-c2cccc(C(=O)N[C@@H](Cc3ccccc3)C(=O)O)c2)cc1 [Example 8-O] | 6.78 |  |
| CC(=O)N[C@@H](Cc1c[nH]c2ccccc12)C(=O)Nc1cccc(-c2ccc(C(=O)N[C@@H](Cc3ccccc3)C(=O)O)cc2)c1 [Example 8-N] | 9.10 |  |
| CC(=O)N[C@@H](Cc1c[nH]c2ccccc12)C(=O)Nc1ccc(-c2ccc(C(=O)N[C@H](Cc3ccccc3)C(=O)O)cc2)cc1 [Example 8-L] | 8.10 |  |
| CC(=O)N[C@@H](Cc1c[nH]c2ccccc12)C(=O)Nc1ccc(-c2ccc(C(=O)O)cc2)cc1 [Example 8-R] | 5.82 |  |
| CC(=O)N[C@@H](Cc1c[nH]c2ccccc12)C(=O)NCc1ccccc1-c1ccc(C(=O)N[C@@H](Cc2ccccc2)C(=O)O)cc1 [Example 8-P] | 7.15 |  |
| uPA,12-32: The critical domain alone (uPA,12-32); residues 12-32 of the EGF-like domain of uPA (DCLNGGTCVSNKYFSNIHWCN; UniProt P00749 32-52, looked up, fragment) |  | pKd (uPAR [2]; critical domain alone (uPA,12-32), read-out: affinity): 7.40; affinity relative to intact ATF (fold less) (uPAR [2]; less than intact ATF): about 100 fold |
| CC(=O)N[C@@H](Cc1c[nH]c2ccccc12)C(=O)Nc1ccc(C(=O)N[C@@H](Cc2ccccc2)C(=O)O)cc1 [Example 8-M] | 7.55 |  |
